Literature values, collected in patent publication US20160374912A1, “TOPICALLY APPLICABLE CHEMICAL PEEL COMPOSITION” (L'OREAL, priority 2015, published 2016).

Tests used:
[1] = not given; remark: listed apart in the source

| pKA | Log P [1] | SMILES |
| --- | --- | --- |
| 9.77-10.77 | 2.11 | CC(c1ccccc1)c1ccc(O)cc1O (stereo not shown) [Phenylethyl Resorcinol] |
| 9.32-9.81 | 2.47 | Oc1cccc(O)c1 [Resorcinol] |
